Laboratory results: ChEMBL document CHEMBL1201862, “PubChem BioAssay data set” (2004)
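Each compound was tested at five concentrations against cells in 96-well plates for 48 hours. GI50 = concentration required for 50% inhibition of growth.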 The source made the active and inactive calls. No stated cut-off is given here; in the data, active = GI50 up to about 1.1 µM and inactive = higher.

Key:
Assay in all cases: DTP human tumour cell line panel, 48 h
SK-MEL-2 = system: SK-MEL-2
OVCAR-8 = system: OVCAR-8
OVCAR-5 = system: OVCAR-5
K562 = system: K562
LOX IMVI = system: LOX IMVI
EKVX = system: EKVX
HCC 2998 = system: HCC 2998
A549 = system: A549
NCI-H522 = system: NCI-H522
UACC-257 = system: UACC-257
NCI/ADR-RES = system: NCI/ADR-RES
HL-60 = system: HL-60
MDA-MB-435 = system: MDA-MB-435
TK-10 = system: TK-10
SK-MEL-28 = system: SK-MEL-28
HOP-92 = system: HOP-92
NCI-H460 = system: NCI-H460
ACHN = system: ACHN
UO-31 = system: UO-31
SK-OV-3 = system: SK-OV-3

Row | SMILES | GI50 (SK-MEL-2) | GI50 (OVCAR-8) | GI50 (OVCAR-5) | GI50 (K562) | GI50 (LOX IMVI) | GI50 (EKVX) | GI50 (HCC 2998) | GI50 (A549) | GI50 (NCI-H522) | GI50 (UACC-257) | GI50 (NCI/ADR-RES) | GI50 (HL-60) | GI50 (MDA-MB-435) | GI50 (TK-10) | GI50 (SK-MEL-28) | GI50 (HOP-92) | GI50 (NCI-H460) | GI50 (ACHN) | GI50 (UO-31) | GI50 (SK-OV-3)
1 | C[C@H](CCC(=O)O)[C@H]1CC[C@H]2[C@@H]3[C@@H](O)C[C@@H]4C[C@H](O)CC[C@]4(C)[C@H]3C[C@H](O)[C@]12C | > 100 µM (inactive) | > 100 µM (inactive) | > 100 µM (inactive) | > 100 µM (inactive) | > 100 µM (inactive) | > 100 µM (inactive) | > 100 µM (inactive) | > 100 µM (inactive) | > 100 µM (inactive) | > 100 µM (inactive) | > 100 µM (inactive) | > 100 µM (inactive) | > 100 µM (inactive) | > 100 µM (inactive) | > 100 µM (inactive) | > 100 µM (inactive) | > 100 µM (inactive) | > 100 µM (inactive) | – | –
2 | Nc1nc(Cl)cc(NCCO)n1 | > 100 µM (inactive) | > 100 µM (inactive) | > 100 µM (inactive) | > 100 µM (inactive) | > 100 µM (inactive) | > 100 µM (inactive) | 72.6 µM (inactive) | > 100 µM (inactive) | > 100 µM (inactive) | > 100 µM (inactive) | > 100 µM (inactive) | – | > 100 µM (inactive) | > 100 µM (inactive) | > 100 µM (inactive) | > 100 µM (inactive) | > 100 µM (inactive) | > 100 µM (inactive) | > 100 µM (inactive) | > 100 µM (inactive)
3 | Cn1c(=O)c(-c2ccccc2)c(O)c2ccccc21 | – | > 100 µM (inactive) | > 100 µM (inactive) | > 100 µM (inactive) | > 100 µM (inactive) | > 100 µM (inactive) | > 100 µM (inactive) | > 100 µM (inactive) | > 100 µM (inactive) | > 100 µM (inactive) | > 100 µM (inactive) | > 100 µM (inactive) | > 100 µM (inactive) | > 100 µM (inactive) | > 100 µM (inactive) | > 100 µM (inactive) | > 100 µM (inactive) | > 100 µM (inactive) | > 100 µM (inactive) | –
4 | CCCCc1ccc(Nc2nc(S)c3ncn(COCCO)c3n2)cc1 | 23.4 µM (inactive) | 45.4 µM (inactive) | 86.5 µM (inactive) | 15.5 µM (inactive) | 27.4 µM (inactive) | 60.5 µM (inactive) | 36.8 µM (inactive) | > 100 µM (inactive) | 20.9 µM (inactive) | 30.4 µM (inactive) | > 100 µM (inactive) | 25.2 µM (inactive) | 57.4 µM (inactive) | 66.2 µM (inactive) | – | 27.4 µM (inactive) | 41.5 µM (inactive) | 43.1 µM (inactive) | > 100 µM (inactive) | > 100 µM (inactive)
5 | COC(=O)C1(NC(=O)C(Cc2ccccc2)N(C(=O)OC(C)(C)C)C(=O)OC(C)(C)C)CCCC1 (stereo unspecified) | > 100 µM (inactive) | 43.9 µM (inactive) | 58.6 µM (inactive) | 43 µM (inactive) | > 100 µM (inactive) | 66.2 µM (inactive) | 19.9 µM (inactive) | 37.9 µM (inactive) | – | – | 22.3 µM (inactive) | 22.1 µM (inactive) | 83.9 µM (inactive) | 32.7 µM (inactive) | > 100 µM (inactive) | 59.2 µM (inactive) | 46.1 µM (inactive) | > 10 µM (inactive) | 64 µM (inactive) | > 100 µM (inactive)
6 | O=C(N[C@@H](Cc1ccccc1)B(O)O)[C@H](Cc1cccc2ccccc12)NC(=O)N1CCOCC1 | 0.00125 µM (active) | 0.0254 µM (active) | 0.00281 µM (active) | 0.00371 µM (active) | 0.00124 µM (active) | 0.0267 µM (active) | 0.00182 µM (active) | 0.0262 µM (active) | < 0.01 µM (active) | 0.00219 µM (active) | 0.938 µM (active) | < 0.01 µM (active) | 0.000298 µM (active) | 0.00566 µM (active) | 0.00106 µM (active) | 0.00233 µM (active) | 0.0215 µM (active) | 0.0105 µM (active) | 0.232 µM (active) | –
7 | C/C(Cc1ccc2c(c1)OCO2)=N\N=c1\sc2ccccc2n1C | > 100 µM (inactive) | > 100 µM (inactive) | > 100 µM (inactive) | > 100 µM (inactive) | > 100 µM (inactive) | 24.8 µM (inactive) | > 100 µM (inactive) | > 100 µM (inactive) | > 100 µM (inactive) | > 100 µM (inactive) | > 100 µM (inactive) | > 100 µM (inactive) | > 100 µM (inactive) | > 100 µM (inactive) | > 100 µM (inactive) | 84.9 µM (inactive) | – | > 100 µM (inactive) | > 100 µM (inactive) | –
8 | O=C1C2=Cc3ccccc3OC2(O)Oc2ccc(O)cc21 (stereo unspecified) | > 100 µM (inactive) | 69.5 µM (inactive) | > 100 µM (inactive) | 28.1 µM (inactive) | > 100 µM (inactive) | > 100 µM (inactive) | > 100 µM (inactive) | 53.6 µM (inactive) | – | > 100 µM (inactive) | 49.9 µM (inactive) | – | > 100 µM (inactive) | > 100 µM (inactive) | > 100 µM (inactive) | 46.8 µM (inactive) | – | 15.8 µM (inactive) | – | > 100 µM (inactive)
9 | Cc1cn(C2CC(O)C(Cn3nncc3Cn3cnc4c(N)ncnc43)O2)c(=O)[nH]c1=O (stereo unspecified) | > 100 µM (inactive) | 26.4 µM (inactive) | > 100 µM (inactive) | – | > 100 µM (inactive) | > 100 µM (inactive) | > 100 µM (inactive) | > 100 µM (inactive) | > 100 µM (inactive) | > 100 µM (inactive) | > 100 µM (inactive) | > 100 µM (inactive) | > 100 µM (inactive) | > 100 µM (inactive) | > 100 µM (inactive) | > 100 µM (inactive) | – | > 100 µM (inactive) | > 100 µM (inactive) | > 100 µM (inactive)
10 | Cc1cc2ncn(C3CCCO3)c2cc1C (stereo unspecified) | > 100 µM (inactive) | > 100 µM (inactive) | > 100 µM (inactive) | > 100 µM (inactive) | > 100 µM (inactive) | > 100 µM (inactive) | > 100 µM (inactive) | > 100 µM (inactive) | 12.1 µM (inactive) | > 100 µM (inactive) | > 100 µM (inactive) | > 100 µM (inactive) | > 100 µM (inactive) | > 100 µM (inactive) | > 100 µM (inactive) | > 100 µM (inactive) | – | > 100 µM (inactive) | 28.3 µM (inactive) | > 100 µM (inactive)
11 | O=C1c2c(Br)sc(Br)c2[C@H]2NC(=S)O[C@@H]12 | 17.4 µM (inactive) | 9.82 µM (inactive) | 19.2 µM (inactive) | 2.98 µM (inactive) | 13.9 µM (inactive) | 20.4 µM (inactive) | 20.5 µM (inactive) | 20.8 µM (inactive) | 1.86 µM (inactive) | 16.8 µM (inactive) | 21.4 µM (inactive) | – | 13.8 µM (inactive) | 29.6 µM (inactive) | 13.2 µM (inactive) | 18 µM (inactive) | 18.6 µM (inactive) | 17.7 µM (inactive) | 15.3 µM (inactive) | 18.7 µM (inactive)
12 | O=C1/C(=C\c2cccc(Oc3ccccc3)c2)S(=O)(=O)C(c2ccccc2)N1c1cc(Cl)ccc1Cl (stereo unspecified) | 28.2 µM (inactive) | 5.06 µM (inactive) | 20.4 µM (inactive) | 3.74 µM (inactive) | 5.25 µM (inactive) | 27.8 µM (inactive) | 21.7 µM (inactive) | 22.2 µM (inactive) | 18.3 µM (inactive) | 19.9 µM (inactive) | 22.6 µM (inactive) | – | 8.13 µM (inactive) | 22.3 µM (inactive) | 17.3 µM (inactive) | 16.9 µM (inactive) | 28.1 µM (inactive) | 18.8 µM (inactive) | 16.8 µM (inactive) | 39.4 µM (inactive)
13 | CCOC(=O)c1c2cccccc-2nc1Nc1cccc2c(C)ccnc12 | > 10 µM (inactive) | > 10 µM (inactive) | > 10 µM (inactive) | 4.01 µM (inactive) | > 10 µM (inactive) | > 10 µM (inactive) | > 10 µM (inactive) | > 10 µM (inactive) | – | 9.2 µM (inactive) | > 10 µM (inactive) | 4.47 µM (inactive) | > 10 µM (inactive) | > 10 µM (inactive) | > 10 µM (inactive) | > 10 µM (inactive) | 7.31 µM (inactive) | 6.14 µM (inactive) | 9.16 µM (inactive) | > 10 µM (inactive)
14 | O=C(NCCCl)Nc1cccnc1 | 29 µM (inactive) | 12.4 µM (inactive) | – | 50 µM (inactive) | 19.3 µM (inactive) | 14.1 µM (inactive) | 17.7 µM (inactive) | 31.6 µM (inactive) | 25.6 µM (inactive) | 8 µM (inactive) | 21 µM (inactive) | 49.3 µM (inactive) | 24.5 µM (inactive) | 11.2 µM (inactive) | 21.2 µM (inactive) | 19.9 µM (inactive) | – | 13.6 µM (inactive) | 22.3 µM (inactive) | 20.6 µM (inactive)
15 | O=C1CC2[C@@H](N3CCCC3)CCC(N1Cc1ccccc1)C2(O)O (stereo partly specified) | – | > 100 µM (inactive) | > 100 µM (inactive) | > 100 µM (inactive) | > 100 µM (inactive) | > 100 µM (inactive) | > 100 µM (inactive) | > 100 µM (inactive) | > 100 µM (inactive) | > 100 µM (inactive) | > 100 µM (inactive) | > 100 µM (inactive) | > 100 µM (inactive) | > 100 µM (inactive) | > 100 µM (inactive) | > 100 µM (inactive) | > 100 µM (inactive) | > 100 µM (inactive) | > 100 µM (inactive) | > 100 µM (inactive)
